# In patent publication US11370794B2, “Toll-like receptor antagonist compounds and methods of use” (Dynavax Technologies Corporation, priority 2016, dated 2022):
# Like-named read-outs stand apart in the source and are kept apart here.
# How the values were obtained:
# human TLR9 = molecular target: T1, human TLR9 (Homo sapiens, UniProt Q9NR96); assay: Inhibition of human TLR9 in human B cells (IL-6 ELISA); format: cell-based; details: for IC50: human B cells, agonist 1018 ISS 1 μM
# T1 construct: endogenous in cells; host or cells: primary human B cells (CD19 microbeads) from buffy coats of healthy donors
# T1 sequence (Q9NR96 26-1032): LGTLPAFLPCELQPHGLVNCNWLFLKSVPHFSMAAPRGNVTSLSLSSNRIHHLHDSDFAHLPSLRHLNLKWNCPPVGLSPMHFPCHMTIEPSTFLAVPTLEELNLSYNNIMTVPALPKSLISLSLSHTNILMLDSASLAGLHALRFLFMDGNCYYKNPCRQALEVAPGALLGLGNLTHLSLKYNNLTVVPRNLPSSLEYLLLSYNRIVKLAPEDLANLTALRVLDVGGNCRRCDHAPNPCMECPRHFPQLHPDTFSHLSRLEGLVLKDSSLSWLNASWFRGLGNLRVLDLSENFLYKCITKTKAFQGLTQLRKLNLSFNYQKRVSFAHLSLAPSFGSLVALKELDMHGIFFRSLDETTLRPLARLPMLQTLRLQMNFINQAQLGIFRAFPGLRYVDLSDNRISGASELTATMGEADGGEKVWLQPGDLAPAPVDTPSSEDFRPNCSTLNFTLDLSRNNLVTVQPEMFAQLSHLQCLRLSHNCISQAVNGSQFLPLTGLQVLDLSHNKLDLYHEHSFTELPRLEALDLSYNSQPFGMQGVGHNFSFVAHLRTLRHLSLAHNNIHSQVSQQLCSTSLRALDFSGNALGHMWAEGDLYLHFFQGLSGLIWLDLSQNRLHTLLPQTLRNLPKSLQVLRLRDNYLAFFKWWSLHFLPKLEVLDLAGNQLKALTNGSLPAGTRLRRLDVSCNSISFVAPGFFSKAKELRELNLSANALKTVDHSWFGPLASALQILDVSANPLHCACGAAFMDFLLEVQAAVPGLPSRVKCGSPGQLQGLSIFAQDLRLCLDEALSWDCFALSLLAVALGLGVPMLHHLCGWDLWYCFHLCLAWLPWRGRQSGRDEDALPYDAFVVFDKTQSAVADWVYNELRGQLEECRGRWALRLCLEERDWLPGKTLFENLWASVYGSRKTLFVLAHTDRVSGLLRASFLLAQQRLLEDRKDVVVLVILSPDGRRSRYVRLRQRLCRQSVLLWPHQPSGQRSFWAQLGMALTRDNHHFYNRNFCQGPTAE
# Method: Example B3—Inhibition of Human TLR9 in Human B Cells
# When placed in cell culture, engagement of TLR9 with an agonist leads to expression and release of cytokines into the media.
# Buffy coats from anonymized, healthy human donors. CD19 microbeads (Miltenyi Cat. No. 130-050-301). TLR9 agonist, 1018 ISS, CpG-containing DNA oligonucleotide. Human interleukin (IL)-6 ELISA kit (Mabtech Cat. No. 3460-1H-20).
# Following isolation of […] from buffy coats, human B cells were plated into 96 well plates at approximately 300,000 cells per well. Test compounds were serially diluted and added to the plates. Test compounds were typically assayed using a concentration range from about 0.01 μM to about 10 μM. Certain test compounds were further assayed in an expanded dilution series using a compound concentration range from about 0.001 μM to about 30 μM. Immediately after adding test compounds, the TLR9 agonist (1018 ISS, CpG-containing DNA oligonucleotide) was added to a final concentration of 1 μM. Cells were incubated for 48 hours at 37° C. A portion of the media supernatant was analyzed for the presence of IL-6 using ELISA kits. The amount of IL-6 produced is a reflection of the amount of TLR9-dependent receptor activity. The IC50 values (the concentration at which 50% of the TLR9-dependent receptor activity is reduced) were calculated based upon the TLR9-dependent receptor activity over a range of different test compound concentrations.
# human TLR8 = molecular target: T2, human TLR8 (Homo sapiens, UniProt Q9NR97); assay: Inhibition of human TLR8 in human monocytes (TNF-alpha / IL-1 beta ELISA); format: cell-based; details: human monocytes, agonist ORN8L 100 μg/mL, 24 hours
# T2 construct: endogenous in cells; host or cells: primary human monocytes (CD14 microbeads) from buffy coats of healthy donors
# T2 sequence (Q9NR97 27-1041): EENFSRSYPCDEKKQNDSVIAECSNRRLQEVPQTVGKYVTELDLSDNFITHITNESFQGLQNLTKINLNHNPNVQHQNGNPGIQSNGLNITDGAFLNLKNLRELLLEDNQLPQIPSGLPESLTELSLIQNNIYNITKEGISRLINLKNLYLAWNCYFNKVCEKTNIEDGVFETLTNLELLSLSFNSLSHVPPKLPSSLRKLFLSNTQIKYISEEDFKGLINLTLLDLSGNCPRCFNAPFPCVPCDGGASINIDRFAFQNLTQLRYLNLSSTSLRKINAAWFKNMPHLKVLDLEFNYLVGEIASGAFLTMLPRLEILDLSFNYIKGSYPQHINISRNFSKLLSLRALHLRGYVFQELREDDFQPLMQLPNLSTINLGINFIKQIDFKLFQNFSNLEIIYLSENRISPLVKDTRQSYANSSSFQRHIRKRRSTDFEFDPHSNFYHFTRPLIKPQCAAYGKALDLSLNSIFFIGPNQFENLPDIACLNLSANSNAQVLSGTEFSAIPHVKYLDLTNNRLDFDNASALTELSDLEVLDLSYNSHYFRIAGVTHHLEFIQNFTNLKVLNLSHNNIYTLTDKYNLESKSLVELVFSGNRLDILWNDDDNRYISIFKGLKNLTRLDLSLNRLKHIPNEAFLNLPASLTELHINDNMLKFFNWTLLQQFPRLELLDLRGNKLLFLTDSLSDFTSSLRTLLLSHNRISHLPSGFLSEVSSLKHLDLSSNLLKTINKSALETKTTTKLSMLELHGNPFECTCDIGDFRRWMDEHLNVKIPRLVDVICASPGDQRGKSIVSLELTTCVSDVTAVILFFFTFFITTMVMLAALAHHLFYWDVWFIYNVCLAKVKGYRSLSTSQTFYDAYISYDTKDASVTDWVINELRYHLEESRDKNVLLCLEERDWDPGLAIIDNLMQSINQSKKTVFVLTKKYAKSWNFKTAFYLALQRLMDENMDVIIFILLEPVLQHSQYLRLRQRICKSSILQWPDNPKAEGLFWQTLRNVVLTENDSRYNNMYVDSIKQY
# Text: Example B2—Inhibition of Human TLR8 in Human Monocytes
# When placed in cell culture, engagement of TLR8 with an agonist leads to expression and release of cytokines into the media.
# Buffy coats from anonymized, healthy human donors. CD14 microbeads (Milteny Cat. No. 130-050-201). TLR8 agonist, (5′-M2UGCUGCUUGUG-/glycerol/-GUGUUCGUCGUM2-5′ with M2=C6-linker, ORN8L, RNA oligonucleotide (Chem Genes Corp.). Human TNF-alpha ELISA kit (Mabtech Cat. No. 3510-1H-20). Human interleukin (IL)-1 beta ELISA kit (Mabtech Cat. No. 3415-1H-20).
# Following isolation of monocytes from buffy coats, human monocytes were plated into 96 well plates at approximately 200,000 cells per well. Test compounds were serially diluted and added to the plates. Immediately after adding test compounds, the TLR8 agonist (ORN8L, RNA oligonucleotide) was added to a final concentration of 100 μg/mL. Cells were incubated for 24 hours at 37° C. A portion of the media supernatant was analyzed for the presence of TNF-alpha and/or IL-1 beta using ELISA kits. The amount of TNF-alpha or IL-1 beta produced is a reflection of the amount of TLR8-dependent receptor activity. The IC50 values (the concentration at which 50% of the TLR8-dependent receptor activity is reduced) were calculated based upon the TLR8-dependent receptor activity over a range of different test compound concentrations.
# [1] = IL-6 readout, 48 hours, range about 0.01 to 10 μM, read-out: Human TLR9 IC50
# [2] = TNF-alpha readout, read-out: Human TLR8 IC50 TNF-a
# [3] = IL-1 beta readout, read-out: Human TLR8 IC50 IL-1b
IC50 (human TLR9; [1]),IC50 (human TLR8; [2]),"IC50 (human TLR9; IL-6, 48 hours, expanded dilution series about 0.001 to 30 μM, read-out: Human TLR9 IC50, expanded dilution series)",inhibits TLR9-dependent responses (in words) (human TLR9; summary statement of the description),IC50 (human TLR8; [3]),Compound
21 nM,3840 nM,,,,"Cc1ccc(-n2cc3cnnc(N4CCC(C(=O)NC5CN(C)C5)CC4)c3n2)cc1 [compound 62, N-(1-methylazetidin-3-yl)-1-(2-(p-tolyl)-2H-pyrazolo[3,4-d]pyridazin-7-yl)piperidine-4-carboxamide]"
2 nM,≥ 20000 nM,10 nM,inhibit,,"Cc1ccc(-n2cc3cnnc(N4CCC(C(=O)NCCN(C)C)CC4)c3n2)cc1 [compound 46, N-(2-(dimethylamino)ethyl)-1-(2-(p-tolyl)-2H-pyrazolo[3,4-d]pyridazin-7-yl)piperidine-4-carboxamide]"
86 nM,2680 nM,,,,"Cc1ccc(-n2nc3c(N4CCC(C(=O)NCCCCN(C)C)CC4)nnc(C)c3c2C)cc1 [compound 31, 1-(3,4-dimethyl-2-(p-tolyl)-2H-pyrazolo[3,4-d]pyridazin-7-yl)-N-(4-(dimethylamino)butyl)piperidine-4-carboxamide]"
251 nM,≥ 20000 nM,,,,"Cc1ccc(-n2nc3c(N4CCC(C(=O)NCCCN(C)C)CC4)nnc(C)c3c2-c2ccccc2)cc1 [compound 34, N-(3-(dimethylamino)propyl)-1-(4-methyl-3-phenyl-2-(p-tolyl)-2H-pyrazolo[3,4-d]pyridazin-7-yl)piperidine-4-carboxamide]"
10800 nM,≥ 20000 nM,,,,"Cc1ccc(-n2nc3c(Cl)nnc(N4CCC(C(=O)NCCCN(C)C)CC4)c3c2C)cc1 [compound 48, 1-(7-chloro-3-methyl-2-(p-tolyl)-2H-pyrazolo[3,4-d]pyridazin-4-yl)-N-(3-(dimethylamino)propyl)piperidine-4-carboxamide]"
379 nM,> 10000 nM,,,> 10000 nM,"Cc1ccc(-n2nc3c(N4CCC(C(=O)NCCCN5CCC5)CC4)nnc(C)c3c2C)cc1 [Compound No. 11, N-(3-(azetidin-1-yl)propyl)-1-(3,4-dimethyl-2-(p-tolyl)-2H-pyrazolo[3,4-d]pyridazin-7-yl)piperidine-4-carboxamide]"

# The next lines start with the molecule.
Compound,IC50 (human TLR9; [1]),IC50 (human TLR8; [2]),"IC50 (human TLR9; IL-6, 48 hours, expanded dilution series about 0.001 to 30 μM, read-out: Human TLR9 IC50, expanded dilution series)",inhibits TLR9-dependent responses (in words) (human TLR9; summary statement of the description),IC50 (human TLR8; [3])
"Cc1ccc(-n2nc3c(N4CCC(C(=O)N5CCC(N(C)C)C5)CC4)nnc(C)c3c2C)cc1 (stereo not shown) [compound 44, (1-(3,4-dimethyl-2-(p-tolyl)-2H-pyrazolo[3,4-d]pyridazin-7-yl)piperidin-4-yl)(3-(dimethylamino)pyrrolidin-1-yl)methanone]",202 nM,≥ 20000 nM,,,
"CCN1CCCC1CNC(=O)C1CCN(c2nnc(C)c3c(C)n(-c4ccccc4)nc23)CC1 (stereo not shown) [33x, 1-(3,4-dimethyl-2-phenyl-2H-pyrazolo[3,4-d]pyridazin-7-yl)-N-((1-ethylpyrrolidin-2-yl)methyl)piperidine-4-carboxamide]",70 nM,> 10000 nM,,,> 10000 nM
"Cc1nnc(N2CCC(C(=O)NCCCN3CCN(C)CC3)CC2)c2nn(-c3ccccc3)c(C)c12 [31x, 1-(3,4-dimethyl-2-phenyl-2H-pyrazolo[3,4-d]pyridazin-7-yl)-N-(3-(4-methylpiperazin-1-yl)propyl)piperidine-4-carboxamide]",211 nM,> 10000 nM,,,> 10000 nM
"Cc1nnc(N2CCC(C(=O)NCCN3CCOCC3)CC2)c2nn(-c3ccccc3)c(C)c12 [32x, 1-(3,4-dimethyl-2-phenyl-2H-pyrazolo[3,4-d]pyridazin-7-yl)-N-(2-morpholinoethyl)piperidine-4-carboxamide]",341 nM,> 10000 nM,,,> 10000 nM
"Cc1ccc(-n2nc3c(N4CCC(C(=O)NCCCN(C)C)C4)nnc(C)c3c2C)cc1 (stereo not shown) [compound 13, 1-(3,4-dimethyl-2-(p-tolyl)-2H-pyrazolo[3,4-d]pyridazin-7-yl)-N-(3-(dimethylamino)propyl)pyrrolidine-3-carboxamide]",292 nM,> 10000 nM,,,> 10000 nM
"Cc1nnc(N2CCC(C(=O)N3CCN(C)CC3)CC2)c2nn(-c3ccccc3)c(C)c12 [59x, (1-(3,4-dimethyl-2-phenyl-2H-pyrazolo[3,4-d]pyridazin-7-yl)piperidin-4-yl)(4-methylpiperazin-1-yl)methanone]",59 nM,2040 nM,,,2110 nM
"Cc1ccc(-n2nc3c(N4CCC(C(=O)N5CC6CNCC6C5)CC4)nnc(C)c3c2C)cc1 (stereo not shown) [compound 71, (1-(3,4-dimethyl-2-(p-tolyl)-2H-pyrazolo[3,4-d]pyridazin-7-yl)piperidin-4-yl) (hexahydropyrrolo[3,4-c]pyrrol-2(1H)-yl)methanone]",588 nM,≥ 20000 nM,,,
